Assay results published in the supplement of paper PMC11451515.

Experiments:
Details in all cases: 48 h
NOMO1 [1] = experiment: AUC of viability dose-response curve (% viability x log10 dose units); higher = less sensitive
Summary of the method: (§1)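 Over 48 h at 37°C, leukemia cells in 1536-well plates (500 or 1000 cells/well), adapted to each medium, received library compounds in DMSO at 11 threefold doses from 47 μM to 0.79 nM. CellTiter-Glo One luminescence, normalised per plate to DMSO and cell-free wells, was fitted by a four-parameter log-logistic function of log10 dose. The area under the curve was then integrated by trapezoidal rule, after scaling curves above full viability and removing those that failed quality control.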

P12-Ichikawa [2] = experiment: as above
Summary of the method: as §1

SEM cells [3] = experiment: as above
Summary of the method: as §1

NOMO1 [4] = experiment: cell viability relative to DMSO control; higher = less cytotoxic
Summary of the method: (§2)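 Library compounds in DMSO were pin-dosed into 1536-well plates (5 μl) holding NOMO1 or SEM (500 cells/well) or P12-Ichikawa (1000 cells/well) leukemia cells, across an 11-point threefold series of 47 μM to 0.79 nM. Each cell line had been adapted for at least four passages in each medium. CellTiter-Glo One luminescence was read after 48 h at 37°C. Viability is the per-plate percentage relative to DMSO wells, with cell-free wells as background.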

P12-Ichikawa [5] = experiment: as above
Summary of the method: as §2

SEM cells [6] = experiment: as above
Summary of the method: as §2

C[C@H](NCc1ccc(OCc2cccc(F)c2)cc1)C(N)=O
AUC of viability dose-response curve
Details	NOMO1 [1]	P12-Ichikawa [2]	SEM cells [3]
HPLM + 10% dialyzed FBS	445	450	323
RPMI 5 mM glucose + 10% FBS	461	443	325
RPMI 5 mM glucose + 10% dialyzed FBS	454	443	290

cell viability [%]
Details	NOMO1 [4]	P12-Ichikawa [5]	SEM cells [6]
HPLM + 10% dialyzed FBS, 0.000781 µM	87.6	95.1	81
HPLM + 10% dialyzed FBS, 0.00234 µM	125	110	102
HPLM + 10% dialyzed FBS, 0.00702 µM	121	107	102
HPLM + 10% dialyzed FBS, 0.0211 µM	113	123	107
HPLM + 10% dialyzed FBS, 0.0632 µM	116	116	97.6
HPLM + 10% dialyzed FBS, 0.19 µM	116	122	76.7
HPLM + 10% dialyzed FBS, 0.569 µM	124	114	58
HPLM + 10% dialyzed FBS, 1.71 µM	133	115	42.3
HPLM + 10% dialyzed FBS, 5.12 µM	97.7	104	29.6
HPLM + 10% dialyzed FBS, 15.4 µM	95.1	98	30.7
HPLM + 10% dialyzed FBS, 46.1 µM	18.4	17.8	9.65
RPMI 5 mM glucose + 10% FBS, 0.000781 µM	110	99.9	102
RPMI 5 mM glucose + 10% FBS, 0.00234 µM	109	105	99.9
RPMI 5 mM glucose + 10% FBS, 0.00702 µM	106	112	106
RPMI 5 mM glucose + 10% FBS, 0.0211 µM	108	119	100
RPMI 5 mM glucose + 10% FBS, 0.0632 µM	106	124	106
RPMI 5 mM glucose + 10% FBS, 0.19 µM	117	126	92.1
RPMI 5 mM glucose + 10% FBS, 0.569 µM	122	134	60.1
RPMI 5 mM glucose + 10% FBS, 1.71 µM	111	109	44.1
RPMI 5 mM glucose + 10% FBS, 5.12 µM	113	103	26
RPMI 5 mM glucose + 10% FBS, 15.4 µM	104	87.4	22.1
RPMI 5 mM glucose + 10% FBS, 46.1 µM	50.3	32.9	10.9
RPMI 5 mM glucose + 10% dialyzed FBS, 0.000781 µM	110	96	78.5
RPMI 5 mM glucose + 10% dialyzed FBS, 0.00234 µM	114	118	99.8
RPMI 5 mM glucose + 10% dialyzed FBS, 0.00702 µM	125	109	102
RPMI 5 mM glucose + 10% dialyzed FBS, 0.0211 µM	110	114	85.1
RPMI 5 mM glucose + 10% dialyzed FBS, 0.0632 µM	107	108	102
RPMI 5 mM glucose + 10% dialyzed FBS, 0.19 µM	123	116	67.1
RPMI 5 mM glucose + 10% dialyzed FBS, 0.569 µM	111	117	47.6
RPMI 5 mM glucose + 10% dialyzed FBS, 1.71 µM	116	114	27.9
RPMI 5 mM glucose + 10% dialyzed FBS, 5.12 µM	99.7	102	21
RPMI 5 mM glucose + 10% dialyzed FBS, 15.4 µM	97.4	80.5	20.6
RPMI 5 mM glucose + 10% dialyzed FBS, 46.1 µM	62.8	33.4	13.2

CN(C)CCOc1ccc(/C(=C(/CCCl)c2ccccc2)c2ccccc2)cc1
AUC of viability dose-response curve
Details	NOMO1 [1]	P12-Ichikawa [2]	SEM cells [3]
HPLM + 10% dialyzed FBS	441	410	362
RPMI 5 mM glucose + 10% FBS	437	393	344
RPMI 5 mM glucose + 10% dialyzed FBS	448	399	369

cell viability [%]
Details	NOMO1 [4]	P12-Ichikawa [5]	SEM cells [6]
HPLM + 10% dialyzed FBS, 0.000781 µM	105	102	54.7
HPLM + 10% dialyzed FBS, 0.00234 µM	116	110	92.8
HPLM + 10% dialyzed FBS, 0.00702 µM	98	107	85.2
HPLM + 10% dialyzed FBS, 0.0211 µM	94.7	107	94.2
HPLM + 10% dialyzed FBS, 0.0632 µM	104	106	108
HPLM + 10% dialyzed FBS, 0.19 µM	126	112	85.6
HPLM + 10% dialyzed FBS, 0.569 µM	100	111	88
HPLM + 10% dialyzed FBS, 1.71 µM	115	88.6	94.6
HPLM + 10% dialyzed FBS, 5.12 µM	95.5	67.2	58.5
HPLM + 10% dialyzed FBS, 15.4 µM	68.5	59.1	34
HPLM + 10% dialyzed FBS, 46.1 µM	42.2	34.9	16.5
RPMI 5 mM glucose + 10% FBS, 0.000781 µM	106	108	54.5
RPMI 5 mM glucose + 10% FBS, 0.00234 µM	104	109	100
RPMI 5 mM glucose + 10% FBS, 0.00702 µM	111	112	74.7
RPMI 5 mM glucose + 10% FBS, 0.0211 µM	109	108	96.7
RPMI 5 mM glucose + 10% FBS, 0.0632 µM	103	109	98.4
RPMI 5 mM glucose + 10% FBS, 0.19 µM	94.2	102	99.5
RPMI 5 mM glucose + 10% FBS, 0.569 µM	115	103	100
RPMI 5 mM glucose + 10% FBS, 1.71 µM	105	83.1	74.8
RPMI 5 mM glucose + 10% FBS, 5.12 µM	99.1	57.9	39.5
RPMI 5 mM glucose + 10% FBS, 15.4 µM	57.3	50.5	22.1
RPMI 5 mM glucose + 10% FBS, 46.1 µM	39.6	32.2	11.9
RPMI 5 mM glucose + 10% dialyzed FBS, 0.000781 µM	93.4	102	45.9
RPMI 5 mM glucose + 10% dialyzed FBS, 0.00234 µM	110	107	96.8
RPMI 5 mM glucose + 10% dialyzed FBS, 0.00702 µM	113	112	83.6
RPMI 5 mM glucose + 10% dialyzed FBS, 0.0211 µM	116	111	102
RPMI 5 mM glucose + 10% dialyzed FBS, 0.0632 µM	108	109	117
RPMI 5 mM glucose + 10% dialyzed FBS, 0.19 µM	125	102	97.5
RPMI 5 mM glucose + 10% dialyzed FBS, 0.569 µM	108	112	85.8
RPMI 5 mM glucose + 10% dialyzed FBS, 1.71 µM	120	80.3	85.2
RPMI 5 mM glucose + 10% dialyzed FBS, 5.12 µM	107	58.1	57.6
RPMI 5 mM glucose + 10% dialyzed FBS, 15.4 µM	76.9	44.1	36.1
RPMI 5 mM glucose + 10% dialyzed FBS, 46.1 µM	50.6	42.7	22.6

COC(=O)C/1=C(C)/N/C(=C(\C1C2=CC(=CC=C2)[N+]([O-])=O)C(=O)OCCCN3CCC(CC3)(C4=CC=CC=C4)C5=CC=CC=C5)C (centres undefined)
AUC of viability dose-response curve
Details	NOMO1 [1]	P12-Ichikawa [2]	SEM cells [3]
HPLM + 10% dialyzed FBS	439	453	458
RPMI 5 mM glucose + 10% FBS	441	429	439
RPMI 5 mM glucose + 10% dialyzed FBS	464	445	441

cell viability [%]
Details	NOMO1 [4]	P12-Ichikawa [5]	SEM cells [6]
HPLM + 10% dialyzed FBS, 0.000781 µM	117	109	113
HPLM + 10% dialyzed FBS, 0.00234 µM	114	101	94.1
HPLM + 10% dialyzed FBS, 0.00702 µM	104	104	114
HPLM + 10% dialyzed FBS, 0.0211 µM	104	101	42
HPLM + 10% dialyzed FBS, 0.0632 µM	108	106	95.5
HPLM + 10% dialyzed FBS, 0.19 µM	114	101	104
HPLM + 10% dialyzed FBS, 0.569 µM	107	96.1	100
HPLM + 10% dialyzed FBS, 1.71 µM	107	107	109
HPLM + 10% dialyzed FBS, 5.12 µM	100	97.3	90.3
HPLM + 10% dialyzed FBS, 15.4 µM	102	92.6	94.8
HPLM + 10% dialyzed FBS, 46.1 µM	87.1	95	98.6
RPMI 5 mM glucose + 10% FBS, 0.000781 µM	101	107	93.4
RPMI 5 mM glucose + 10% FBS, 0.00234 µM	99.2	103	97.7
RPMI 5 mM glucose + 10% FBS, 0.00702 µM	93	107	98.2
RPMI 5 mM glucose + 10% FBS, 0.0211 µM	92.4	81.4	39.7
RPMI 5 mM glucose + 10% FBS, 0.0632 µM	97.7	95.7	90.3
RPMI 5 mM glucose + 10% FBS, 0.19 µM	93.5	95.3	97.8
RPMI 5 mM glucose + 10% FBS, 0.569 µM	88.3	98.4	98
RPMI 5 mM glucose + 10% FBS, 1.71 µM	90.7	89.6	95.7
RPMI 5 mM glucose + 10% FBS, 5.12 µM	83.3	89.6	104
RPMI 5 mM glucose + 10% FBS, 15.4 µM	95.3	92.4	106
RPMI 5 mM glucose + 10% FBS, 46.1 µM	81.8	93	91.1
RPMI 5 mM glucose + 10% dialyzed FBS, 0.000781 µM	107	103	100
RPMI 5 mM glucose + 10% dialyzed FBS, 0.00234 µM	93.8	102	92.3
RPMI 5 mM glucose + 10% dialyzed FBS, 0.00702 µM	95.5	99.3	100
RPMI 5 mM glucose + 10% dialyzed FBS, 0.0211 µM	97.1	88.3	43.2
RPMI 5 mM glucose + 10% dialyzed FBS, 0.0632 µM	107	98.8	97.2
RPMI 5 mM glucose + 10% dialyzed FBS, 0.19 µM	109	95	95.6
RPMI 5 mM glucose + 10% dialyzed FBS, 0.569 µM	101	91.4	101
RPMI 5 mM glucose + 10% dialyzed FBS, 1.71 µM	94.4	94.9	112
RPMI 5 mM glucose + 10% dialyzed FBS, 5.12 µM	91.2	94	96.5
RPMI 5 mM glucose + 10% dialyzed FBS, 15.4 µM	90.5	94.4	100
RPMI 5 mM glucose + 10% dialyzed FBS, 46.1 µM	98.7	94.6	102
